Laboratory results reported in patent US10369187B2, “Peptide regulators of JNK family kinases” (Vanderbilt University, priority 2017, dated 2019).

Tested on: ASK1-MKK4/7-JNK3 signaling cascade
Test: In cell JNK3 activation assay (co-expression with HA-ASK1 and HA-JNK3α2, phospho-JNK Western blot)
Assay type: cell-based, African green monkey
Details: for JNK3 phosphorylation in cells, YFP fusions: YFP fusions co-expressed with JNK3 and ASK1 in COS7 cells
Description: COS-7 African green monkey cells were maintained in DMEM supplemented with 10% heat-inactivated FBS (Invitrogen), penicillin, and streptomycin at 37° C. in a humidified incubator with 5% CO2. The cells were plated at 80-90% confluence and transfected using Lipofectamine 2000 (Invitrogen) according to the manufacturer's instructions. Cells were used 48 h post-transfection and serum-starved overnight before experiments.
COS-7 cells were incubated with phosphatase inhibitors (50 mM NaF and 10 mM Na3VO4) in serum-free medium for 15 min at 37° C.; washed with cold PBS; and lysed with SDS lysis buffer containing 1% SDS, 10 mM Tris (pH7.4), 10 mM NaF, 100 μM Na3VO4, 2 mM EDTA, 2 mM benzamidine and 1 mM PMSF. JNKs activity was assayed by Western blotting using an antibody specific for phosphorylated JNK to detect phosphorylated (active) JNKs^17,20,23. Whole cell lysates were boiled for 5 min and centrifuged at 10,000×g for 10 min, and the supernatants were used for Western blotting. Protein was measured using the Bio-Rad Coomassie Blue assay. The proteins were resolved on 8% SD S-PAGE and transferred to PVDF membrane (Millipore, Bedford, Mass.). Blots were incubated with the primary antibodies (Cell Signaling Technology, Inc) anti-phospho-JNK, anti-JNK, anti-HA (6E2) (1:1000 to 1:5000), followed by appropriate HRP-conjugated secondary antibodies. Protein bands were detected by enhanced chemiluminescence (ECL, Pierce), followed by exposure to x-ray film. To quantify phospho-JNKs, serial dilutions of anisomycin (1 μg/ml)-stimulated HEK-A cell lysates were used to ensure that all samples were in linear range. The values for these proteins are expressed in arbitrary units.
The JNK3 activation was next tested in cells (See FIG. 7). COS7 cells were transfected with HA-ASK1, HA-JNK3α2, and YFP-arrestin constructs to measure in cell JNK3α2 activation. Phospho-JNK3 is shown as the uppermost band in the Western analysis, and was analyzed by densitometric quantification using Quantity One software (quantification in bottom panel). […] The data were statistically analyzed by ANOVA with protein as the main factor. Significance of the difference from control (p values) is indicated.
In Cell JNK3 Activation Assay COS7 African green monkey cells were sustained in DMEM solution containing 10% heat-inactivated FBS (Invitrogen), penicillin, and streptomycin at 37° C. and 5% CO2. Cells were transfected at 90-100% confluency in 6-well plates with pcDNA3-HA-ASK1 (0.4 ug), pcDNA3-HA-JNK3α2 (0.2 ug), and pcDNA3-Venus arrestin constructs (0.2-0.6 ug) at a 1:2 ratio of DNA:Lipofectamine 2000 (Invitrogen). At 48 hrs post-transfection, the cells were incubated with phosphatase inhibitors (20 mM NaF and 1 mM Na3VO4) in PBS for 15 mins, washed twice with cold PBS, and lysed using 50 mM Tris (pH 7.8), 2 mM EDTA, 250 mM NaCl, 10% Glycerol, 0.5% NP-40, 2 mM benzamide, and 1 mM PMSF. Protein concentration was measured using the Bio-Rad Quick Start™ Bovine Serum Albumin (BSA) Standard Set. The proteins were subjected to 10% SDS-PAGE and transferred to PVDF membrane (Millipore, Bedford, Mass.). Membranes were incubated with respective primary antibodies (Cell Signaling Technology, Inc.) anti-ASK1 (#3762S), anti-phospho-JNK (#9251), anti-SAPK/JNK (#9252P), anti-GST (#2625), or anti-HA (#3724), followed by the appropriate HRP-conjugated secondary antibodies. Bands were detected by x-ray film using enhanced chemiluminescence (ECL, Pierce) and quantification was done using the software Quantity One (BioRad).

Substance	JNK3 phosphorylation in cells, YFP fusions	in cell JNK3α2 activation (phospho-JNK3 densitometry) (Example 2, YFP/Venus constructs with HA-ASK1, HA-JNK3α2 in COS7 cells)	effect on JNK3 phosphorylation compared with full-length arrestin-3 (YFP fusion co-expressed with JNK3 and ASK1 in COS7 cells)	dose-response curve of JNK3 phosphorylation (varying amounts of YFP-T1A with ASK1 and JNK3)
MGDK-GTRVFKKASPNGKLTVYLGK (MGDKGTRVFKKASPNGKLTVYLGK; N-terminal MGDK; bovine) [B1A, homologous N-terminal peptide from arrestin-2, negative control]	does not function as a scaffold of ASK1-MKK4/7-JNK3 cascade in cells			
MGEKPGTRVFKKSSPNCKLTVYLGK (bovine) [T1A, first 25 residues of arrestin-3]	also active	facilitates JNK3 activation	greater than that of full-length arrestin-3	biphasic, with a clear optimum
